# Assay results from US9815851B2, “Pyrrolo carboxamides as modulators of orphan nuclear receptor RAR-related orphan receptor-gamma (RORγ, NR1F3) activity and for the treatment of chronic inflammatory and autoimmune diseases” (PHENEX PHARMACEUTICALS AG, priority 2011, dated 2017).
# Where two headings read alike, the source gives them in different places.
# Key:
# [1] = molecular target: T1, RORγ ligand binding domain (LBD) (Homo sapiens, UniProt P51449); assay: TR-FRET Activity Assay (ligand sensing, RORγ-LBD / coactivator peptide interaction, LANCE); assay type: biochemical
# T1 construct: made in house; host or cells: E. coli BL-21 (BL3), vector pDEST15
# T1 sequence (P51449 269-508 limits assumed): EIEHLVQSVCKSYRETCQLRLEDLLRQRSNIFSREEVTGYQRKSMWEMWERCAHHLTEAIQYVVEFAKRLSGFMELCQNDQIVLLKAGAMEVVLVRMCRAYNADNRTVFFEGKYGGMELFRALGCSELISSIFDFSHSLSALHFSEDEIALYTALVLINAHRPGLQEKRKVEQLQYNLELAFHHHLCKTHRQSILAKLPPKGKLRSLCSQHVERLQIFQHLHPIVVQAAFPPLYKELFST
# RORγ = molecular target: T2, RORγ (UniProt P51449); assay: RORγ Gal4 Reporter Gene Assay in 293T cells (firefly and renilla luciferase); assay type: cell-based, human
# T2 sequence (P51449 1-518): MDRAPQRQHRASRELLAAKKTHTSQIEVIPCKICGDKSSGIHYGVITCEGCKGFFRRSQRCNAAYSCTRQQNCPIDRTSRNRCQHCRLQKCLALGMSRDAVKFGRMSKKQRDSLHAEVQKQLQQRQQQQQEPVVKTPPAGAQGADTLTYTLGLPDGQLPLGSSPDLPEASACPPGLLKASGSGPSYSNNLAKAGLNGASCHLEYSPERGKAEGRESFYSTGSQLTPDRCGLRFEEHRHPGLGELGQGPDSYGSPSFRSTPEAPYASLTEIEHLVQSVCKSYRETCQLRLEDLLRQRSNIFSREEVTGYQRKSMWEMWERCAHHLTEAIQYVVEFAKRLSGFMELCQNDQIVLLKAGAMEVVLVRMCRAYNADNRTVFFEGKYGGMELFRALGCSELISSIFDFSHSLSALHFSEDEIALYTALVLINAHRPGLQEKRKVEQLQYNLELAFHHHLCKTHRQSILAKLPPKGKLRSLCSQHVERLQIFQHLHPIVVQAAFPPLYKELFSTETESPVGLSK
# [2] = first value of the cell FRET/FF/REN, TR-FRET activity assay, read-out: pIC50 (FRET) (converted)
# [3] = second value of the cell, Gal4 reporter gene assay in 293T cells, firefly luciferase
# [4] = third value of the cell, Gal4 reporter gene assay in 293T cells, renilla normalised luciferase
smiles,measurement,setting,value
Cc1c(C(=O)NCCC(C)(C)C(=O)O)cc(-c2cc(C(=O)NC(C)(C)C)cc(C3(C)CC3)c2)n1CC1CCCCC1 [17/340],IC50,[1]; [2],1580 nM
same,pIC50 (FF),RORγ; [3],7.1
same,pIC50 (REN),RORγ; [4],7.1
Cc1c(C(=O)NC2CCOCC2)cc(-c2ccc(S(=O)(=O)NC(C)(C)C)c(C(C)C)c2)n1CC1CCCCC1 [17/226],IC50,[1]; [2],316 nM
same,pIC50 (FF),RORγ; [3],8.2
same,pIC50 (REN),RORγ; [4],8.2
Cc1c(C(=O)NC2CCOCC2)cc(-c2ccc(-c3cnn(C(C)(C)C)c3)c(C(C)(C)C)c2)n1CC1CCCCC1 [26/2],IC50,[1]; [2],200 nM
same,pIC50 (FF),RORγ; [3],7.2
same,pIC50 (REN),RORγ; [4],7.2
Cc1c(C(=O)N2CCOCC2)cc(-c2cc(C(C)(C)C)cc(C(C)(C)C)c2)n1CC1CCCCC1 [1/52],IC50,[1]; [2],158 nM
same,pIC50 (FF),RORγ; [3],6.4
same,pIC50 (REN),RORγ; [4],6.5
COCCNC(=O)c1cc(-c2cc(C(C)(C)C)c(O)c(C(C)(C)C)c2)n(CC2CCCCC2)c1C [1/46],IC50,[1],316 nM
same,pIC50 (FF),RORγ,6.5/6.5/6.5
same,pIC50 (REN),RORγ,6.5/6.5/6.5
Cc1c(C(=O)NCC(O)C(F)(F)F)cc(-c2cc(C(C)(C)C)c3c(c2)C2(CCO3)CC2)n1CC1CCCCC1 (stereo not drawn) [17/23],IC50,[1]; [2],1260 nM
same,pIC50 (FF),RORγ; [3],6.6
same,pIC50 (REN),RORγ; [4],6.6
Cc1c(C(=O)NC2COC2)cc(-c2cc(C(C)(C)C)c3c(c2)C(C)(C)CC(=O)N3C)n1CC1CCCCC1 [1/19],IC50,[1]; [2],1000 nM
same,pIC50 (FF),RORγ; [3],7.0
same,pIC50 (REN),RORγ; [4],7.1
Cc1c(C(N)=O)cc(-c2cc(C(C)(C)C)cc(C3(C)CC3)c2)n1CC1CCCCC1 [1/89],IC50,[1]; [2],251 nM
same,pIC50 (FF),RORγ; [3],6.3
same,pIC50 (REN),RORγ; [4],6.2
Cc1c(C(=O)NCC(C)(C)O)cc(-c2cc(C(C)N3CCOCC3)cc(C(C)(C)C)c2)n1CC1CCCCC1 (stereo not drawn) [1/109],IC50,[1]; [2],12600 nM
same,pIC50 (FF),RORγ; [3],< 4.7
same,pIC50 (REN),RORγ; [4],< 4.7
Cc1c(C(=O)NCCS(C)(=O)=O)cc(-c2cc(C(C)(C)C)cc(C(C)(C)C)c2)n1CC1CCCCC1 [1/1],IC50,[1]; [2],251 nM
same,pIC50 (FF),RORγ; [3],6.6
same,pIC50 (REN),RORγ; [4],6.7
Cc1c(C(=O)NC2COC2)cc(-c2cn(S(=O)(=O)N3CCCCC3)c3ccccc23)n1CC1CCCCC1 [9/1],IC50,[1]; [2],501 nM
same,pIC50 (FF),RORγ; [3],7.5
same,pIC50 (REN),RORγ; [4],7.5
Cc1c(C(=O)NCC2(O)CCS(=O)(=O)CC2)cc(-c2ccc(S(=O)(=O)NC(C)(C)C)c3ccccc23)n1CC1CCCCC1 [17/268],IC50,[1]; [2],794 nM
same,pIC50 (FF),RORγ; [3],7.7
same,pIC50 (REN),RORγ; [4],7.8
Cc1c(C(=O)NC2CCOCC2)cc(-c2ccc(S(=O)(=O)NC3(C)COC3)c(C(F)(F)F)c2)n1CC1CCCCC1 [17/145],IC50,[1]; [2],631 nM
same,pIC50 (FF),RORγ; [3],7.6
same,pIC50 (REN),RORγ; [4],7.7
Cc1c(C(=O)NC2CCOCC2)cc(-c2ccc(-c3nnc(C(C)(C)C)o3)c(C(C)(C)C)c2)n1CC1CCCCC1 [17/251],IC50,[1],501 nM
same,pIC50 (FF),RORγ,6.3/6.9/6.9
same,pIC50 (REN),RORγ,6.3/6.9/6.9
Cc1c(C(=O)NCC2(CO)COC2)cc(-c2cc(C(C)(C)C)c3c(c2)C2(CCO3)CC2)n1CC1CCCCC1 [17/8],IC50,[1]; [2],794 nM
same,pIC50 (FF),RORγ; [3],7.2
same,pIC50 (REN),RORγ; [4],7.2
Cc1c(C(=O)NCCc2nn[nH]n2)cc(-c2ccc(S(=O)(=O)NC(C)(C)C)c(C(C)(C)C)c2)n1CC1CCCCC1 [17/334],IC50,[1]; [2],1260 nM
same,pIC50 (FF),RORγ; [3],5.8
same,pIC50 (REN),RORγ; [4],5.9
Cc1c(C(=O)N[C@H]2C[C@H](C(=O)O)C2)cc(-c2ccc(S(=O)(=O)NC(C)(C)C)c(C(F)(F)F)c2)n1CC1CCCCC1 [17/220],IC50,[1]; [2],316 nM
same,pIC50 (FF),RORγ; [3],6.6
same,pIC50 (REN),RORγ; [4],6.6
Cc1c(C(=O)N[C@H]2C[C@H](C(=O)O)C2)cc(-c2cc(C(C)(C)C)cc(C(C)(C)C)c2OC(F)F)n1CC1CCCCC1 [17/193],IC50,[1]; [2],2510 nM
same,pIC50 (FF),RORγ; [3],6.9
same,pIC50 (REN),RORγ; [4],7.0
"Cc1c(C(=O)NC2COC2)cc(-c2cc(C(=O)NC(C)(C)C)cc(C(F)(F)F)c2)n1CC1CCCCC1 [Example 15, 5-(3-(tert-Butylcarbamoyl)-5-(trifluoromethyl)phenyl)-1-(cyclohexylmethyl)-2-methyl-N-(oxetan-3-yl)-1H-pyrrole-3-carboxamide]",IC50,[1],501 nM
same,pIC50 (FF),RORγ,6.3/6.9/6.9
same,pIC50 (REN),RORγ,6.3/6.9/6.9
Cc1c(C(=O)NCC2(C)COC2)cc(-c2ccc(S(=O)(=O)NC(C)(C)C)c(C(C)(C)C)c2)n1CC1CCCCC1 [1/127],IC50,[1],501 nM
same,pIC50 (FF),RORγ,6.3/7.5/7.4
same,pIC50 (REN),RORγ,6.3/7.5/7.4
Cc1c(C(=O)NC2COC2)cc(-c2cc(C(C)(C)C)cc(C(C)(C)C)c2)n1CC1CC2CCC1C2 (stereo not drawn) [1/117],IC50,[1]; [2],501 nM
same,pIC50 (FF),RORγ; [3],6.8
same,pIC50 (REN),RORγ; [4],7.0
Cc1c(C(=O)NC2CCS(=O)(=O)CC2)cc(-c2ccc(S(=O)(=O)NC(C)(C)C)c3ccccc23)n1CC1CCCCC1 [17/263],IC50,[1]; [2],316 nM
same,pIC50 (FF),RORγ; [3],7.9
same,pIC50 (REN),RORγ; [4],8.0
Cc1c(C(=O)NC2CCOCC2)cc(-c2ccc(S(=O)(=O)NC(C)(C)CO)c(C(F)(F)F)c2)n1CC1CCCCC1 [17/107],IC50,[1]; [2],1000 nM
same,pIC50 (FF),RORγ; [3],6.9
same,pIC50 (REN),RORγ; [4],6.9
Cc1c(C(=O)NCCCCO)cc(-c2cc(C(C)(C)C)cc(C(C)(C)C)c2)n1CC1CCCCC1 [1/66],IC50,[1]; [2],398 nM
same,pIC50 (FF),RORγ; [3],6.7
same,pIC50 (REN),RORγ; [4],6.8
CC(C)(O)CNC(=O)c1cc(-c2ccc(S(=O)(=O)NC(C)(C)C)c(C(C)(C)C)c2)n(CC2CCCCC2)c1C(F)(F)F [1/26],IC50,[1],10000 nM
same,pIC50 (FF),RORγ,5.0/<4.7/<4.7
same,pIC50 (REN),RORγ,5.0/<4.7/<4.7
Cc1c(C(=O)NC[C@@H]2CCCO2)cc(-c2cc(C(C)(C)C)c3c(c2)C2(CCO3)CC2)n1CC1CCCCC1 [17/6],IC50,[1]; [2],251 nM
same,pIC50 (FF),RORγ; [3],6.4
same,pIC50 (REN),RORγ; [4],6.5
Cc1c(C(=O)NC2CCOCC2)cc(-c2ccc(S(=O)(=O)NC(C)(C)C)c(C(F)(F)F)c2)n1CC1CC(F)(F)C1 [17/133],IC50,[1]; [2],1260 nM
same,pIC50 (FF),RORγ; [3],6.3
same,pIC50 (REN),RORγ; [4],6.3
Cc1c(C(=O)NCC(C)(C)O)cc(-c2cc(C(C)(C)C)cc(C(C)(C)C)c2)n1S(=O)(=O)N1CCCCC1 [7/7],IC50,[1]; [2],398 nM
same,pIC50 (FF),RORγ; [3],6.5
same,pIC50 (REN),RORγ; [4],6.6
Cc1c(-c2cc(C(=O)NC3CCOCC3)c(C)n2CC2CCCCC2)ccc(S(=O)(=O)NC(C)(C)C)c1C [17/273],IC50,[1]; [2],1580 nM
same,pIC50 (FF),RORγ; [3],7.2
same,pIC50 (REN),RORγ; [4],7.3
Cc1c(C(=O)NCCN2CCOCC2)cc(-c2cc(C(C)(C)C)c3c(c2)C2(CCO3)CC2)n1CC1CCCCC1 [1/41],IC50,[1],501 nM
same,pIC50 (FF),RORγ,6.3/6.9/7.0
same,pIC50 (REN),RORγ,6.3/6.9/7.0
CC(C)(C)NS(=O)(=O)c1ccc(-c2cc(C(=O)NC3CCOCC3)c(Cl)n2CC2CCCCC2)cc1C(C)(C)C [17/119],IC50,[1]; [2],501 nM
same,pIC50 (FF),RORγ; [3],7.6
same,pIC50 (REN),RORγ; [4],7.7
Cc1c(C(=O)NCC2(C(N)=O)CCOCC2)cc(-c2cc(C(C)(C)C)cc(C3(C)CC3)c2)n1CC1CCCCC1 [17/62],IC50,[1]; [2],316 nM
same,pIC50 (FF),RORγ; [3],8.3
same,pIC50 (REN),RORγ; [4],8.3
COCc1c(C(=O)NC2CCOCC2)cc(-c2ccc(S(=O)(=O)NC(C)(C)C)c(C(C)(C)C)c2)n1CC1CCCCC1 [1/29],IC50,[1],631 nM
same,pIC50 (FF),RORγ,6.2/7.2/7.2
same,pIC50 (REN),RORγ,6.2/7.2/7.2
Cc1c(C(=O)NCCCCC[S+](C)[O-])cc(-c2cc(C(C)(C)C)c3c(c2)C2(CCO3)CC2)n1CC1CCCCC1 (stereo not drawn) [17/79],IC50,[1],1580 nM
same,pIC50 (FF),RORγ,5.8/6.4/6.3
same,pIC50 (REN),RORγ,5.8/6.4/6.3
